Experiment: gradient 5% acetonitrile 3 min, to 50% in 2 min, to 85% in 15 min, held 3 min, 100 µL/min
Settings: column: Zorbax Extend-C18 2.1 x 50 mm; eluents: water / acetonitrile, 0.1% formic acid
Outline: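 The mobile phases were water and acetonitrile, each with 0.1% formic acid, pumped at 100 μL/min through a Zorbax Extend-C18 column (2.1 × 50 mm, 1.8 μm). Pure standards were injected as mixtures of ~100 molecules and detected by a quadrupole time-of-flight mass spectrometer in positive and negative ionization mode. Retention time came from computationally picked adduct peaks, each inspected by hand.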

Row | SMILES | RP-LC retention time [s]
1 | CCOC(=O)N1CCC2(CC1)OC(=O)C(C)=C2C(=O)Nc1cccc(OC)c1 | 845
2 | Cc1cccc(NC(=O)Cn2ccc3ccn(C)c3c2=O)c1C | 761
3 | O=C1CCC2(O)[C@@H]3Cc4ccc(O)c5c4[C@]2(CCN3Cc2ccoc2)C1O5 (stereo not given in full) | 609
4 | Cc1ccc2c(c1)N(Cc1ccccc1)N=C(C(=O)N1CCC(C)CC1)S2(=O)=O | 1080
5 | CC(C)N1C(=O)C(C)(C(=O)NCc2ccc(F)cc2)Oc2cccnc21 (stereo not given) | 984
6 | CCN1CCN(CCCNC(=O)CCCn2c3ccccc3c3cnn(C)c(=O)c32)CC1 | 576
7 | COc1ccc(C2C(C(=O)Nc3ccc4c(c3)OCO4)c3ccccc3C(=O)N2C)cc1 (stereo not given) | 835
8 | COc1cc(-c2nc3ccccn3c2Nc2ccc3c(c2)OCCO3)ccc1O | 629
9 | O=C(Cc1cccn1-c1ccccc1)NCc1cc(F)ccc1F | 936
10 | O=C(Cc1ccc(Cl)cc1)Nc1cnc(N2CCCC2)nc1 | 752
11 | C#CCOCC1CCN(C(=O)CC2CCCCC2)CC1 | 864
12 | Cc1nn(-c2ccccc2)c(C)c1S(=O)(=O)N1CCC(C(=O)Nc2cccc(F)c2)CC1 | 986
13 | COCCC(=O)N1CCCN(C2=NS(=O)(=O)C(c3ccc(F)cc3)=C2C)CC1 | 697
14 | O=C(Nc1ccc(F)cc1)C1CCCN(c2ccc3cc(S(=O)(=O)N4CCCCC4)ccc3n2)C1 (stereo not given) | 883
15 | Cc1ccc(-c2cn3c(CC(=O)Nc4ccc(F)c(Cl)c4)csc3n2)cc1C | 678
16 | CN1C(=O)CCc2cc(NS(=O)(=O)c3cccc(Cl)c3)ccc21 | 783
17 | Cc1ccc(NC(=O)N2CCCC2c2nc(-c3ccccc3)no2)cc1 (stereo not given) | 964
18 | O=C(Cn1nc2c(cc1=O)CCCC2)Nc1cccc(N2CCCCS2(=O)=O)c1 | 715
19 | O=C(CSc1ccc(N2CCCC(C(=O)NC3CC3)C2)nn1)Nc1cccc(Br)c1 (stereo not given) | 664
20 | O=C(O)c1cn(Cc2cccc(F)c2)c(=O)c2ccccc12 | 822
21 | Clc1cccc(CSc2nnc(-c3ccc(Br)cc3)o2)c1 | 1260
22 | COc1ccccc1-c1noc(Cn2c(=O)n(-c3cccc(F)c3)c(=O)c3sccc32)n1 | 880
23 | O=C(C1CCC1)N1CCCC1c1nc(-c2cccc(Cl)c2)no1 (stereo not given) | 1060

Row | SMILES | RP-LC retention time [s]
24 | CCOc1cccc(-c2noc(Cn3c(=O)n(CC)c(=O)c4ccccc43)n2)c1 | 983
25 | COc1ccc(NC(=O)c2cc(C)n3nc(C)cc3n2)c(C)c1 | 1040
26 | COC(=O)c1c(NC(=O)CN2C(=O)CCC2=O)sc(Cc2ccc3c(c2)OCO3)c1C | 864
27 | COc1ccc(-c2noc(Cn3ccn(-c4cccc(Cl)c4)c(=O)c3=O)n2)cc1 | 866
28 | CCCCNC(=O)C1CCN(c2ccc(Sc3cc(C)ccc3C)nn2)CC1 | 819
29 | CN(C(=O)CN1CCCn2nc(C(=O)O)cc2C1=O)c1ccccc1 | 627
30 | COc1ccc(Cc2noc(Cc3nnc(-c4cccc(Cl)c4)o3)n2)cc1 | 1010
31 | CCn1ccc2c(cc(C(=O)Nc3ccc(C)c(C)c3)n2C)c1=O | 824
32 | CCCNC(=O)Cn1c(CC)nc2ccccc21 | 578
33 | COc1ccc(CN2CC3(CCN(S(=O)(=O)Cc4ccccc4)CC3)C2=O)cc1 | 882
34 | CCn1nc(-c2nc(-c3ccc(Cl)cc3)no2)ccc1=O | 1030
35 | Cc1cccc(S(=O)(=O)N2C[C@@H]3CN(S(=O)(=O)c4c(C)noc4C)C[C@H](C2)O3)c1 | 920
36 | O=C(Cc1cccs1)N1CCCn2nc(-c3ccncc3)cc2C1 | 591
37 | Cn1cnc2c(C(=O)N3CCC(c4ccccc4)C3)nn(-c3ccccc3)c2c1=O (stereo not given) | 851
38 | CCCC(=O)Nc1cnc(-c2ccc(Cl)cc2)nc1 | 958
39 | CCCC(=O)N1CC(c2nc(-c3ccc(F)cc3)no2)C2(CCOCC2)C1 (stereo not given) | 872
40 | CN(C)S(=O)(=O)c1cccc(-c2nnc(-c3ccc(Cl)cc3)o2)c1 | 1000
41 | COc1ccc(NC(=O)Cc2csc3nc(-c4cccc(Br)c4)cn23)cc1OC | 882
42 | CCCNC(=O)N(C1CCOCC1)C1CCN(C(=O)c2ccsc2)CC1 | 680
43 | CN(CCc1ccc(Cl)c(Cl)c1)CC(O)COc1ccc(NS(C)(=O)=O)cc1 (stereo not given) | 715
44 | COc1c(C(=O)NC(C)C)sc2cc(Cl)ccc12 | 1060
45 | O=C(NC1CCN(c2cc(-c3cccs3)[nH]n2)C1)c1ccc(F)cc1 (stereo not given) | 726
46 | COc1ccc(NC(=O)C(C)n2cnc3nc4c(cc3c2=O)CCCC4)cc1OC (stereo not given) | 685

Row | SMILES | RP-LC retention time [s]
47 | Cc1cc(-c2c(C)sc(C)c2S(=O)(=O)NCCc2ccc(Cl)cc2)n[nH]1 | 1130
48 | Cc1ccc(Cn2c(=O)c(N3CCCC(C(=O)NCCc4c(C)noc4C)C3)nc3ccccc32)cc1 (stereo not given) | 1080
49 | CCN(C(=O)c1ccc(C(C)(C)C)cc1)c1nc(-c2ccccc2)cs1 | 949
50 | COc1cccc(NC(=O)N2CCCC2c2nc(-c3cccc(C)c3)no2)c1 (stereo not given) | 877
51 | COC(=O)c1cc(C)nc2c1c(=O)n(Cc1cccc(F)c1)c(=O)n2C | 973
52 | O=C(COc1ccc(F)cc1)N1CCN(CC(F)(F)F)CC1 | 771
53 | COCCCNC(=O)C1CCCN(S(=O)(=O)c2cc(OC)ccc2OC)C1 (stereo not given) | 699
54 | O=C(c1ccoc1)N1CCCn2nc(-c3ccc(Cl)cc3)cc2C1 | 802
55 | COc1ccccc1CNc1ccc(-c2nc(-c3cccc(F)c3)no2)cn1 | 1230
56 | N#Cc1ccccc1NC(=O)NCC1CN(c2ccc3c(c2)OCO3)C(=O)O1 (stereo not given) | 690
57 | CCc1noc(NC(C)=O)c1-c1ccc(OC)c(S(=O)(=O)Nc2ccc(OC)c(Cl)c2)c1 | 775
58 | COC(=O)c1ccc2c(=O)n(CCc3ccccc3)c(N3CCCC3)nc2c1 | 1210
59 | CCCNC(=O)C1CCCN(c2ccc(SCC(=O)Nc3ccc(OCC)cc3)nn2)C1 (stereo not given) | 595
60 | Cc1cc(C(=O)NOCCO)c(Nc2ccc(I)cc2F)n(C)c1=O | 718
61 | O=C(c1ccco1)N1CCN(c2ncnc3c2cnn3Cc2ccccc2)CC1 | 741
62 | C=CCNC(=O)Cn1c2c(c(=O)n3nc(-c4ccc(C)cc4)nc13)CCC2 | 720
63 | CN1CCC(N2CCN(C(=O)C3CCc4sc(C(=O)N5CCCC5)cc4C3)CC2)CC1 (stereo not given) | 558
64 | CCn1ccc2cc(S(=O)(=O)N3CCCC(C(=O)NCCC(C)C)C3)ccc21 (stereo not given) | 980
65 | COc1ccc(CNC(=O)c2nnc(-c3ccc(S(=O)(=O)N4CCC(C)CC4)cc3)o2)cc1 | 1020
66 | CCCNC(=O)C1CCCN(c2ccc(SCC(=O)Nc3ccc(Cl)cc3F)nn2)C1 (stereo not given) | 733
67 | Cc1ccc(S(=O)(=O)N2CCc3nc(-c4ccccc4)ncc3C2)c(C)c1 | 1170
68 | Cc1nc2cc(-c3noc(-c4ccco4)n3)ccc2n(C2CCCC2)c1=O | 927
69 | O=C([C@@H]1C[C@H](F)CN1C(=O)Cc1ccccc1F)N1CCCCC1 | 684

Row | SMILES | RP-LC retention time [s]
70 | O=C(CCNc1cnc2cnccn12)NCc1ccc(N2CCCCC2)cc1 | 533
71 | CC1Oc2ccc(-c3csc(NC(=O)CCC4CCCCC4)n3)cc2N(C)C1=O (stereo not given) | 1230
72 | CCn1ccc(C(=O)N2CCN(c3cc(-c4ccccc4)[nH]n3)CC2)n1 | 689
73 | COc1cccc(CNC(=O)N2CCC(N3CCN(Cc4ccccc4)C(=O)C3=O)CC2)c1 | 698
74 | CCc1cc(=O)n(CC(=O)Nc2ccc(OC)cc2)c(N)n1 | 595
75 | Cc1c(CNCCc2ccco2)c(C(=O)O)c(C)n1Cc1ccc(F)cc1 | 709
76 | O=C(NC1CC1)C1CCN(S(=O)(=O)c2ccc(-c3noc(C4CC4)n3)cc2)CC1 | 803
77 | CNC(=O)c1noc([C@@H]2CC(F)(F)CN2Cc2ccc(C)o2)n1 | 1070
78 | CCCCN1CCC(N(C(=O)NCCc2ccccc2)C2CCOCC2)CC1 | 671
79 | COc1ccc(NC(=O)c2noc3c2CCCC3)c(OC)c1 | 1170
80 | COC(=O)c1ccc2nc(NC(=O)c3ccccc3S(C)(=O)=O)sc2c1 | 744
81 | Cn1ccnc1C(=O)N1CCC(Cc2noc(C3CC3)n2)C1 (stereo not given) | 590
82 | COC(=O)c1ccsc1NC(=O)Cc1ccc2c(c1)OCO2 | 888
83 | CCOc1ccc(NC(=O)N(C)Cc2nc3ccccc3c(=O)n2CCOC)cc1 | 811
84 | CS(=O)(=O)N1C[C@H]2CCN(Cc3cccc(F)c3F)C[C@H]21 | 575
85 | CCOc1ccc(CNC(=O)c2cnc(N3CCSCC3)nc2N)cc1 | 716
86 | O=C(CCC1CCCN(S(=O)(=O)c2ccccc2F)C1)NC1CCCCC1 (stereo not given) | 952
87 | O=C(Nc1ccccc1)N1CC(Oc2cccc(-c3nc(-c4ccccc4)no3)c2)C1 | 1160
88 | Cc1sc2ccn(CC(C)C)c(=O)c2c1C(=O)NCc1ccco1 | 889
89 | COc1ccc(C)cc1NC(=O)NC1CCN(c2ccc(F)c(C)c2)C1=O (stereo not given) | 914
90 | CC(C)(C)NC(=O)N1CCCN(S(C)(=O)=O)CC1 | 614

Reference: the METLIN SMRT retention time set (Domingo-Almenara et al. 2019)
